Reference: ChEMBL document CHEMBL1153699, “Discovery and optimization of antibacterial AccC inhibitors” (Bioorg Med Chem Lett, 2009)
Values after ≈ are worked out from the molar mass of the structure shown.

How the values were obtained:
[1] = Inhibition of Escherichia coli HS294 ACCase
Escherichia coli = test: Antimicrobial activity against Escherichia coli HS294; assay type: functional

SMILES	IC50 ([1]; read-out: IC50) [nM]	MIC (Escherichia coli) [µg/mL]	IC50 [1]
Cc1ccccc1CNc1nc2cc(C(N)=O)ccc2n1CC1CCCCC1	28000		
NC(=O)c1cc(S(=O)(=O)NCc2ccc(Cl)cc2)c2c(c1)nc(NCc1ccccc1Cl)n2C[C@H]1CCCCC[C@H]1O	2100		
CNC(=O)c1ccc2c(c1)nc(NCc1ccccc1Cl)n2CC1CCCCC1	> 20000		
CC(C)(CO)Cn1c(NCc2ccccc2Cl)nc2cc(C(N)=O)ccc21	700		
NC(=O)c1ccc2c(c1)nc(NCc1ccccc1F)n2CC1CCCCC1	16900		
NC(=O)c1ccc2c(c1)nc(NCc1ccccc1Br)n2CC1CCCCC1	143000		
NC(=O)c1ccc2c(c1)nc(NCc1ccccc1C(F)(F)F)n2CC1CCCCC1	144000		
NC(=O)c1ccc2c(n1)nc(NCc1ccccc1Cl)n2CC1CCCCC1	160		
C[C@H](O)Cn1c(NCc2ccccc2Cl)nc2nc(C(N)=O)ccc21	270		
CC(C)(CO)Cn1c(NCc2ccccc2Cl)nc2nc(C(N)=O)ccc21	20	1.6 (≈ 4.13 µM)	
NC(=O)c1ccc2c(n1)nc(NCc1ccccc1Cl)n2CCCO	190		
NC(=O)c1cc(Cl)c2c(c1)nc(NCc1ccccc1Cl)n2CC1CCCCC1	1600		
NC(=O)c1cc([N+](=O)[O-])c2c(c1)nc(NCc1ccccc1Cl)n2[C@H]1CCc2ccccc21	90		
Cn1c(NCc2ccccc2Cl)nc2cc(C(N)=O)cc([N+](=O)[O-])c21	3500		
NC(=O)c1ccc2c(n1)nc(NCc1ccccc1Cl)n2C1CCCCC1	130		
C[C@@H](c1ccccc1)n1c(NCc2ccccc2Cl)nc2nc(C(N)=O)ccc21	2060		
NC(=O)c1ccc2c(n1)nc(NCc1ccccc1Cl)n2Cc1ccccc1	170		
NC(=O)c1cc(N)c2c(c1)nc(NCc1ccccc1Cl)n2C[C@H]1CCCCC[C@H]1O	5000		
Cn1c(NCc2ccccc2Cl)nc2cc(C(N)=O)cc(N)c21	50000		
NC(=O)c1cc([N+](=O)[O-])c2c(c1)nc(NCc1ccccc1Cl)n2C[C@H]1CCCCC[C@H]1O	10	0.2 (≈ 0.424 µM)	
CC(C)CCNS(=O)(=O)c1cc(C(N)=O)cc2nc(NCc3ccccc3Cl)n(C[C@H]3CCCCC[C@H]3O)c12	800		
NC(=O)c1cc(Br)c2c(c1)nc(NCc1ccccc1Cl)n2C[C@H]1CCCCC[C@H]1O	130	0.4 (≈ 0.791 µM)	
CSc1cc(C(N)=O)cc2nc(NCc3ccccc3Cl)n(C[C@H]3CCCCC[C@H]3O)c12	170		
C[S+]([O-])c1cc(C(N)=O)cc2nc(NCc3ccccc3Cl)n(C[C@H]3CCCCC[C@H]3O)c12 (some centres undefined)	260	12.5 (≈ 25.6 µM)	
C[C@H](Nc1nc2cc(C(N)=O)ccc2n1CC1CCCCC1)c1ccccc1	41000		
NC(=O)c1ccc2c(n1)nc(NCc1ccccc1Cl)n2CC(O)COc1ccccc1 (centres undefined)	3010		
NC(=O)c1ccc2c(n1)nc(NCc1ccccc1Cl)n2Cc1ccc2c(c1)OCCO2	2750		

SMILES	IC50 ([1]; read-out: IC50) [nM]	MIC (Escherichia coli) [µg/mL]	IC50 [1]
NC(=O)c1cc(S(N)(=O)=O)c2c(c1)nc(NCc1ccccc1Cl)n2C[C@H]1CCCCC[C@H]1O	700		
CNS(=O)(=O)c1cc(C(N)=O)cc2nc(NCc3ccccc3Cl)n(C[C@H]3CCCCC[C@H]3O)c12	380		
NC(=O)c1ccc2c(n1)nc(NCc1ccccc1Cl)n2Cc1cccc(OC(F)(F)F)c1	40000		
CC(C)(C)OCCCn1c(NCc2ccccc2Cl)nc2nc(C(N)=O)ccc21	350		
NC(=O)c1ccc2c(c1)nc(NCc1c(Cl)cccc1Cl)n2CC1CCCCC1	241000		
NC(=O)c1ccc2c(c1)nc(NCc1cccc(Cl)c1)n2CC1CCCCC1	40000		
NC(=O)c1ccc2c(c1)nc(NCc1ccc(Cl)cc1)n2CC1CCCCC1	63000		
NC(=O)c1ccc2c(c1)nc(NCc1cccc3ccccc13)n2CC1CCCCC1	171000		
CS(=O)(=O)c1cc(C(N)=O)cc2nc(NCc3ccccc3Cl)n(C[C@H]3CCCCC[C@H]3O)c12	60	1.6 (≈ 3.17 µM)	
COc1ccccc1Cn1c(NCc2ccccc2Cl)nc2nc(C(N)=O)ccc21	2840		
NC(=O)c1ccc2c(n1)nc(NCc1ccccc1Cl)n2CC1COc2ccccc2O1 (centres undefined)	300		
CC(C)S(=O)(=O)c1cc(C(N)=O)cc2nc(NCc3ccccc3Cl)n(C[C@H]3CCCCC[C@H]3O)c12	100		
COc1ccccc1CNc1nc2cc(C(N)=O)ccc2n1CC1CCCCC1	139000		
NC(=O)c1ccc2c(c1)nc(NCc1ccccc1Cl)n2CC[C@H](O)CO	400		
NC(=O)c1ccc2c(c1)nc(NCc1ccccc1Cl)n2C[C@H]1CCCCC[C@H]1O	500		
NC(=O)c1ccc2c(c1)nc(NCc1ccccc1Cl)n2CCCO	2000		
NC(=O)c1ccc2c(n1)nc(NCc1ccccc1Cl)n2[C@@H]1CCc2ccccc21	20	0.8 (≈ 1.91 µM)	
NC(=O)c1ccc2c(c1)nc(NCc1ccccc1)n2CC1CCCCC1	15800		
NC(=O)c1ccc2c(c1)nc(NCc1ccccc1Cl)n2CC1CCCCC1	5000		
NC(=O)c1ccc2c(c1)nc(NCc1ccccc1Cl)n2[C@@H]1CCc2ccccc21	700		
NC(=O)c1ccc2c(c1)nc(NCc1ccccc1Cl)n2[C@H]1CCCc2ccccc21	1300		
NC(=O)c1ccc2c(c1)nc(NCc1ccccc1Cl)n2CCc1c[nH]c2ccccc12	9500		
NC(=O)c1ccc2c(c1)nc(NCc1ccccc1Cl)n2CCc1ccccc1	8900		
CC1CCCCC1n1c(NCc2ccccc2Cl)nc2cc(C(N)=O)ccc21 (centres undefined)	2100		
NC(=O)c1ccc2c(c1)nc(NCc1ccccc1Cl)n2[C@H]1CCc2ccccc21	14700		
COc1cc(Cc2cnc(N)nc2N)cc(OC)c1OC [TRIMETHOPRIM]			Not Active
